Measurements: patent US20220386611A1, “NOVEL HETEROARYL-TRIAZOLE COMPOUNDS AS PESTICIDES” (Bayer Aktiengesellschaft, priority 2019, published 2022)

Assays:
Format in all cases: in vivo
[1] = test system: Rhipicephalus microplus larvae (strain Parkhurst, resistant against synthetic pyrethroids); experiment: Rhipicephalus (Boophilus) microplus in-vitro contact test, larval cattle tick; conditions: 5 μg/cm^2 (=500 g/ha), after 48 hours, read-out: efficacy (larvae dead or moribund)
Procedure: Rhipicephalus (Boophilus) Microplus—In-Vitro Contact Tests Larval Cattle Tick (Strain Parkhurst, Resistant Against Synthetic Pyrethroids)
(§1) 9 mg compound is solved in 1 mL acetone and diluted with acetone to the desired concentration. 250 μL of the test solution is filled in 25 mL glass test tubes and homogeneously distributed on the inner walls by rotation and tilting on a shaking device (2 h at 30 rpm). With a compound concentration of 900 ppm, an inner surface of 44.7 cm^2 and a homogeneous distribution, a dose of 5 μg/cm^2 is achieved.
After the solvent has evaporated, each test tube is filled with 20-50 cattle tick larvae (Rhipicephalus microplus), closed with a perforated lid and incubated in a horizontal position at 85% relative humidity and 27° C. in an incubator. After 48 hours efficacy is determined. The larvae are patted on the ground of the tubes and negative geotactic behaviour is recorded.
An efficacy of 100% means all larvae are dead or moribund; 0% means no larvae are dead or moribund.

[2] = test system: adult engorged female ticks (Rhipicephalus microplus); experiment: Rhipicephalus (Boophilus) microplus injection test; conditions: 168 h, after 7 days, read-out: efficacy (infertile eggs); for pest or weed control at 0.004 mg: 4 μg/animal; for pest or weed control at 0.02 mg: 20 μg/animal
Procedure: Rhipicephalus (Boophilus) microplus—Injection Test
(§2) Solvent: dimethyl sulfoxide
To produce a suitable preparation of active compound, 10 mg of active compound are dissolved in 0.5 mL solvent, and the concentrate is diluted with solvent to the desired concentration.
Five adult engorged female ticks (Rhipicephalus microplus) are injected with 1 μL compound solution into the abdomen. The ticks are transferred into replica plates and incubated in a climate chamber.
After 7 days egg deposition of fertile eggs is monitored. Eggs where fertility is not visible are stored in a climate chamber till hatching after about 42 days. An efficacy of 100% means all eggs are infertile; 0% means all eggs are fertile.

[3] = test system: adult cat fleas (Ctenocephalides felis); experiment: Ctenocephalides felis in-vitro contact test, adult cat flea; conditions: after 48 hours, read-out: efficacy (fleas dead or moribund); for pest or weed control at 5 µg/cm2, 500 g/ha: 5 μg/cm^2 (=500 g/ha)
Procedure: as §1, with “Ctenocephalides felis—In-Vitro Contact Tests Adult Cat Flea 9 mg” for “9 mg”
After the solvent has evaporated, each test tube is filled with 5-10 adult cat fleas (Ctenocephalidesfelis), closed with a perforated lid and incubated in a lying position at room temperature and relative humidity.
(§3) After 48 hours efficacy is determined. The fleas are patted on the ground of the tubes and are incubated on a heating plate at 45-50° C. for at most 5 minutes. Immotile or uncoordinated moving fleas, which are not able to escape the heat by climbing upwards, are marked as dead or moribund.
An efficacy of 100% means all fleas are dead or moribund; 0% means no fleas are dead or moribund.

[4] = test system: adult unfed cat fleas (Ctenocephalides felis); experiment: Ctenocephalides felis oral test; conditions: 48 h
Procedure: Ctenocephalides felis—Oral Test
as §2
To produce a suitable preparation of active compound, 10 mg of active compound are dissolved in 0.5 ml solvent, and the concentrate is diluted with cattle blood to the desired concentration.
Approximately 20 adult unfed cat fleas (Ctenocephalides felis) are placed in flea chambers. The blood chamber, sealed with parafilm on the bottom, are filled with cattle blood supplied with compound solution and placed on the gauze covered top of the flea chamber, so that the fleas are able to suck the blood. The blood chamber is heated to 37° C. whereas the flea chamber is kept at room temperature.
After 2 days mortality in % is determined. 100% means all the fleas have been killed; 0% means none of the fleas have been killed.

[5] = test system: adult brown dog ticks (Rhipicephalus sanguineus); experiment: Rhipicephalus sanguineus in-vitro contact test with adult brown dog ticks; conditions: 5 μg/cm^2 (=500 g/ha), after 48 hours, read-out: efficacy (ticks dead or moribund)
Procedure: Rhipicephalus sanguineus—In-Vitro Contact Tests with Adult Brown Dog Ticks
as §1
as §3, with “After the solvent has evaporated, each test tube is filled with 5-10 adult brown dog ticks (Rhipicephalus sanguineus), closed with a perforated lid and incubated in a lying position at room temperature and relative humidity. After” for “After”, “ticks” for “fleas”, “ticks,” for “fleas,”
An efficacy of 100% means all ticks are dead or moribund; 0% means no ticks are dead or moribund.

[6] = test system: larvae of the banded cucumber beetle (Diabrotica balteata); experiment: Diabrotica balteata spray test; conditions: 168 h, 100 g/ha (=32 μg/well), after 7 days, wheat seeds, read-out: efficacy (seedlings grown like untreated, uninfected control)
Procedure: Diabrotica balteata—spray test
Solvent: 78.0 parts by weight of acetone
1.5 parts by weight of dimethylformamide
(§4) Emulsifier: alkylarylpolyglycol ether
(§5) To produce a suitable preparation of active compound, 1 part by weight of active compound is mixed with the stated amount of solvent, and the concentrate is diluted with water, containing an emulsifier concentration of 1000 ppm, to the desired concentration. Further test concentrations are prepared by dilution with emulsifier containing water.
Soaked wheat seeds (Triticum aestivum) are placed in a multiple well plate filled with agar and some water and are incubated for 1 day to germinate (5 seeds per well). The germinated wheat seeds are sprayed with a test solution containing the desired concentration of the active ingredient. Afterwards each unit is infected with 10-20 larvae of the banded cucumber beetle (Diabrotica balteata).
After 7 days efficacy in % is determined. 100% means all the seedlings have grown up like in the untreated, uninfected control; 0% means none of the seedlings have grown.

[7] = test system: green peach aphid (Myzus persicae); experiment: Myzus persicae oral test; conditions: 120 h
Procedure: Solvent: 100 parts by weight acetone
To produce a suitable preparation of active compound, 1 part by weight of active compound is mixed with the stated amount of solvent, and the concentrate is diluted with water to the desired concentration. 50 μL compound solution is filled in microtiter plates and 150 μL IPL41 insect medium (33%+15% sugar) is added to obtain a total volume of 200 μL per well. Afterwards the plates are sealed with parafilm through which a mixed population of the green peach aphid (Myzus persicae) can suck on the compound preparation.
(§6) After 5 days mortality in % is determined. 100% means all aphids have been killed and 0% means none of the aphids have been killed.

[8] = test system: green peach aphid (Myzus persicae); experiment: Myzus persicae spray test; conditions: foliar, 120 h, after 5 days, Chinese cabbage leaf disks
Procedure: Myzus persicae—spray test
(§7) Solvent: 78.0 parts by weight acetone • 1.5 parts by weight dimethylformamide
as §4
as §5, with “solvents” for “solvent,”, “and” for “and the concentrate”
Chinese cabbage (Brassica pekinensis) leaf disks infected with all instars of the green peach aphid (Myzus persicae), are sprayed with a preparation of the active ingredient of the desired concentration.
as §6

[9] = test system: fall armyworm larvae (Spodoptera frugiperda); experiment: Spodoptera frugiperda spray test; conditions: in Zea mays, 168 h
Procedure: Spodoptera frukiperda—Spray Test
as §7, §4
as §5, with “solvents” for “solvent,”, “and” for “and the concentrate”
Maize (Zea mays) leaf sections are sprayed with a preparation of the active ingredient of the desired concentration. Once dry, the leaf sections are infested with fall armyworm larvae (Spodoptera frugiperda).
After 7 days mortality in % is determined. 100% means all caterpillars have been killed and 0% means none of the caterpillars have been killed.

[10] = test system: Aedes aegypti strain MONHEIM; experiment: Aedes aegypti test (AEDSAE surface treatment & contact assay); conditions: 24 hours after contact, read-out: efficacy (mortality)
Procedure: Aedes Aegypti Test (AEDSAE Surface Treatment & Contact Assay)
(§8) Solvent: Aceton+2000 ppm rapeseed oil methyl ester (RME)
(§9) In order to produce a sufficient, active ingredient containing solution it is necessary to solve the test compound in the solvent-mix (acetone at 2 mg/ml/RME 2000 ppm). This solution is pipetted onto a glazed tile and after evaporation of the acetone, adult mosquitoes of the species Aedes aegypti strain MONHEIM are placed onto the dried surface. The exposure time is 30 minutes. Mortality in percent (%) is determined 24 hours after contact of the insects to the treated surface. 100% mortality means that all tested insects are dead, whereas 0% means that no insect died.

[11] = test system: Musca domestica strain WHO-N; experiment: Musca domestica test (MUSCDO surface treatment & contact assay); conditions: surface concentration 20 mg/m^2, 30 minutes exposure, 24 hours after contact, read-out: efficacy (mortality)
Procedure: Musca domestica Test (MUSCDO Surface Treatment & Contact Assay)
as §8
as §9, with “flies” for “mosquitoes”, “Musca domestica” for “Aedes aegypti”, “WHO-N” for “MONHEIM”

Row | SMILES | pest or weed control at 5 µg/cm2 [1] [%] | pest or weed control at 0.004 mg [2] [%] | pest or weed control at 5 µg/cm2, 500 g/ha [3] [%] | mortality at 100 ppm [4] [%] | pest or weed control at 5 µg/cm2, 500 g/ha [5] [%] | pest or weed control at 32 µg/disc, 100 g/ha [6] [%] | mortality at 4 ppm [7] [%] | mortality at 100 g/ha [8] [%] | mortality at 100 g/ha [9] [%] | pest or weed control at 1 µg/cm2, 100 g/ha ([3]; 1 μg/cm^2 (=100 g/ha)) [%] | pest or weed control at 0.02 mg [2] [%] | mortality at 4 mg/m2 ([10]; surface concentration 4 mg/m^2, 30 minutes exposure) [%] | mortality at 20 mg/m2 ([10]; surface concentration 20 mg/m^2, 30 minutes exposure) [%] | mortality at 20 mg/m2 [11] [%]
1 | CC(NC(=O)c1cc(Br)cc(C(F)(F)F)c1)c1nc(Br)nn1-c1ncccn1 (racemic) [Example I-009, 3-bromo-N-[1-(5-bromo-2-pyrimidin-2-yl-1,2,4-triazol-3-yl)ethyl]-5-(trifluoromethyl)benzamide] | 100 | 100 | 80 | 100 | 100 | 100 | 100 | 70 | 67 | – | – | – | – | –
2 | CC(NC(=O)c1cc(Br)cc(Br)c1)c1nc(I)nn1-c1ncccn1 (stereo not shown) [Example I-023] | – | – | – | 100 | – | – | – | – | – | – | – | – | – | –
3 | CC(NC(=O)c1cncc(C(F)(F)F)c1)c1nc(Br)nn1-c1ncccn1 (stereo not shown) [Example I-015] | 100 | 100 | – | 100 | – | 80 | – | – | – | – | – | – | – | –
4 | CC(NC(=O)c1cc(Br)cc(C(F)(F)F)c1)c1nc(I)nn1-c1ncccn1 (stereo not shown) [Example I-022] | 100 | – | – | 90 | 80 | 100 | 100 | – | 100 | – | – | – | – | –
5 | CC(NC(=O)c1cc(Cl)nc(Cl)c1)c1nc(Cl)nn1-c1ncccn1 (stereo not shown) [Example I-006] | 100 | 80 | 100 | 100 | 80 | 100 | 90 | 90 | – | – | – | – | – | –
6 | CC(NC(=O)c1cc(Br)cc(OC(F)(F)F)c1)c1nc(I)nn1-c1ncccn1 (racemic) [Example I-020, 3-bromo-N-[1-(5-iodo-2-pyrimidin-2-yl-1,2,4-triazol-3-yl)ethyl]-5-(trifluoromethoxy)benzamide] | 100 | – | 100 | 100 | 100 | 100 | 100 | 90 | 100 | 100 | – | – | – | –
7 | CC(NC(=O)c1cc(Cl)cc(C(F)(F)F)c1)c1nc(Cl)nn1-c1ccc(Cl)cn1 (racemic) [Example I-017, 3-chloro-N-[1-[5-chloro-2-(5-chloro-2-pyridyl)-1,2,4-triazol-3-yl]ethyl]-5-(trifluoromethyl)benzamide] | 100 | 100 | – | – | – | 100 | – | – | 83 | – | 100 | – | – | –
8 | CC(NC(=O)c1cc(Cl)cc(C(F)(F)F)c1)c1nc(Cl)nn1-c1ncccn1 (stereo not shown) [Example I-004] | 100 | 100 | – | 90 | 100 | 100 | 100 | – | 100 | – | 100 | 80 to 100 | 80 to 100 | –
9 | CC(NC(=O)c1cc(Cl)cc(C(F)(F)F)c1)c1nc(I)nn1-c1ccc(Cl)cn1 (racemic) [Example I-019, 3-chloro-N-[1-[2-(5-chloro-2-pyridyl)-5-iodo-1,2,4-triazol-3-yl]ethyl]-5-(trifluoromethyl)benzamide] | 90 | 100 | – | – | – | 100 | – | – | 100 | – | 100 | – | – | 80 to 100
10 | CC(NC(=O)c1cc(Cl)cc(Cl)c1)c1nc(Cl)nn1-c1ncccn1 (stereo not shown) [Example I-005] | – | 100 | – | 100 | 100 | 100 | – | – | 100 | – | 100 | – | – | –
